Assay results published in US10647699B2, “Substituted 2-oxyimidazolylcarboxamides as pesticides” (Bayer CropScience Aktiengesellschaft, priority 2016, dated 2020).

What was measured:
[1] = log P by HPLC on reversed-phase columns (OECD Guideline 117), neutral range; type: physicochemical; settings: for chromatographic logP: reversed-phase (C18) HPLC column, read-out: LogP-neutral
Myzus persicae [2] = experiment: Myzus persicae spray test on bell pepper plants; type: in vivo; settings: after 6 days, application rate 20 ppm
Procedure: Myzus persicae-Spray Test
(§1) Solvent: 14 parts by weight of dimethylformamide
(§2) Emulsifier: alkylaryl polyglycol ether
(§3) To produce a suitable preparation of active compound, 1 part by weight of active compound is dissolved using the specified parts by weight of solvent and made up with water containing an emulsifier concentration of 1000 ppm until the desired concentration is attained. To produce further test concentrations, the formulation is diluted with emulsifier-containing water. If the addition of ammonium salts or/and penetrants is required, these are each added in a concentration of 1000 ppm to the formulation solution.
Bell pepper plants (Capsicum annuum) severely infested with the green peach aphid (Myzus persicae) are treated by spraying with the active compound formulation in the desired concentration.
After 6 days, the kill in % is determined. 100% means that all of the aphids have been killed; 0% means that none of the aphids have been killed.

Boophilus microplus = Boophilus microplus injection test; type: in vivo; settings: 20 μg/animal, assessed after 7 days
Procedure: Boophilus microplus—Injection Test Solvent: dimethyl sulphoxide To produce a suitable preparation of active compound, 10 mg of active compound are mixed with 0.5 ml of solvent and the concentrate is diluted with solvent to the desired concentration. […] The animals are transferred into dishes and kept in a climate-controlled room. Efficacy is assessed after 7 days by laying of fertile eggs. Eggs which are not visibly fertile are stored in a climate-controlled cabinet until the larvae hatch after about 42 days.

Aphis gossypii = Aphis gossypii spray test on cotton plants; type: in vivo; settings: after 6 days, application rate 20 ppm, cotton plants; for pest or weed control at 20 ppm: Aphis gossypii, 144 h, read-out: efficacy (kill)
Procedure: Aphis gossypii—Spray Test
as §1, §2, §3
Cotton plants (Gossypium hirsutum) which are heavily infested by the cotton aphid (Aphis gossypii) are sprayed with an active compound formulation of the desired concentration.
After 6 days, the kill in % is determined. 100% means that all the aphids have been killed; 0% means that no aphids have been killed.

Myzus persicae [3] = experiment: Myzus persicae oral test (MYZUPE O); type: in vivo; settings: for Emax at 0.8 ppm / Emax at 4 ppm / pest or weed control at 20 ppm: Myzus persicae, po, 120 h; for Emax at 0.8 ppm / Emax at 4 ppm: MYZUPE O, 5 dat, read-out: % efficacy; for pest or weed control at 20 ppm / efficacy: after 5 days, application rate 20 ppm; for pest or weed control at 20 ppm: read-out: efficacy
Procedure: Solvent: 100 parts by weight of acetone
To produce a suitable preparation of active compound, 1 part by weight of active compound is dissolved using the specified parts by weight of solvent and made up with water until the desired concentration is attained.
50 μl of the active compound preparation are transferred into microtitre plates and made up to a final volume of 200 μl with 150 μl of IPL41 insect medium (33%+15% sugar). Subsequently, the plates are sealed with parafilm, which a mixed population of green peach aphids (Myzus persicae) within a second microtitre plate is able to puncture and imbibe the solution through it.
After 5 days, the efficacy in % is determined. 100% means that all the aphids have been killed; 0% means that no aphids have been killed.
Myzus persicae—Oral Test (MYZUPE O)
After 5 or 6 days (dat), the efficacy in % is determined. 100% means that all the aphids have been killed; 0% means that no aphids have been killed.

Myzus persicae [4] = experiment: Myzus persicae spray test (MYZUPE), Chinese cabbage leaf discs; type: in vivo; settings: for Emax at 100 g/ha / pest or weed control at 500 g/ha: Myzus persicae, foliar, 144 h; for Emax at 100 g/ha: MYZUPE, 100 g of ai/ha, 6 dat, read-out: % efficacy; for pest or weed control at 500 g/ha: after 6 days, read-out: efficacy; for pest or weed control at 500 g/ha / efficacy: application rate 500 g/ha; for efficacy: after 5 days
Procedure: Myzus persicae—Spray Test
as §3, with “water.” for “water. If the addition of ammonium salts or/and penetrants is required, these are each added in a concentration of 1000 ppm to the formulation solution.”
Discs of Chinese cabbage leaves (Brassica pekinensis) infested by all stages of the green peach aphid (Myzus persicae) are sprayed with an active compound formulation of the desired concentration.
After 5 or 6 days, the efficacy in % is determined. 100% means that all the aphids have been killed; 0% means that no aphids have been killed.
Myzus persicae—Spray Test (MYZUPE)
Discs of Chinese cabbage leaves (Brassica pekinensis) infested by all stages of the green peach aphid (Myzus persicae) are sprayed with an active compound preparation of the desired concentration.
After the desired period of time, the efficacy in % is determined. 100% means that all the aphids have been killed; 0% means that no aphids have been killed.

Tetranychus urticae = Tetranychus urticae spray test, OP-resistant, bean leaf discs; type: in vivo; settings: after 6 days, application rate 500 g/ha
Procedure: Tetranychus urticae—Spray Test, OP-Resistant
as §3, with “water.” for “water. If the addition of ammonium salts or/and penetrants is required, these are each added in a concentration of 1000 ppm to the formulation solution.”
Discs of bean leaves (Phaseolus vulgaris) infested with all stages of the greenhouse red spider mite (Tetranychus urticae) are sprayed with an active compound formulation of the desired concentration.
After 6 days, the efficacy in % is determined. 100% means that all the spider mites have been killed; 0% means that no spider mites have been killed.

LogP-neutral ([1]; pH 7.8) | SMILES | efficacy (Tetranychus urticae) [%] | LogP-neutral ([1]; HPLC, neutral range pH 7.8) | efficacy (kill) (Aphis gossypii) [%] | efficacy (Myzus persicae [3]) [%] | efficacy (Myzus persicae [4]) [%] | also measured
– | CC(C)Oc1ncc(C(=O)N(C)c2cccnc2)n1C [Example II-1] | – | – | – | – | – | chromatographic logP ([1]; HPLC, neutral range pH 7.8): 1.47; efficacy (kill) (Myzus persicae [2]): 100%; efficacy (no fertile eggs laid) (Boophilus microplus): 100%; pest or weed control at 20 ppm (Aphis gossypii): 100%; Emax at 0.8 ppm (Myzus persicae [3]): 90%; Emax at 4 ppm (Myzus persicae [3]): 100%; pest or weed control at 20 ppm (Myzus persicae [3]): 100%
– | CN(C(=O)c1cnc(Oc2cc(F)ccc2F)n1C)c1cccnc1 [Example II-14] | 90 | – | – | – | – | Emax at 100 g/ha (Myzus persicae [4]): 90%; pest or weed control at 500 g/ha (Myzus persicae [4]): 100%; chromatographic logP ([1]; HPLC, neutral range pH 7.8): 1.87; pest or weed control at 20 ppm (Aphis gossypii): 99%; Emax at 0.8 ppm (Myzus persicae [3]): 90%; pest or weed control at 20 ppm (Myzus persicae [3]): 100%
– | CN(C(=O)c1cnc(Oc2ccc(F)cc2)n1C)c1cccnc1 [Example II-19] | – | 1.76 | 100 | 100 | – | efficacy (kill) (Myzus persicae [2]): 95%
– | CN(C(=O)c1cnc(OCCC(F)(F)F)n1C)c1cccnc1 [Example II-23] | 100 | – | – | – | – | Emax at 100 g/ha (Myzus persicae [4]): 90%; pest or weed control at 500 g/ha (Myzus persicae [4]): 90%; pest or weed control at 20 ppm (Aphis gossypii): 95%; Emax at 0.8 ppm (Myzus persicae [3]): 100%; Emax at 4 ppm (Myzus persicae [3]): 100%; pest or weed control at 20 ppm (Myzus persicae [3]): 100%
1.38 | C=CCOc1ncc(C(=O)N(C)c2cccnc2)n1C [Example II-37] | 90 | – | 100 | 100 | 100 | –
– | CN(C(=O)c1cnc(OCCCC#N)n1C)c1cccnc1 [Example II-38] | – | 1.08 | 98 | 100 | 90 | –
– | CN(C(=O)c1cnc(Oc2ccc(F)nc2)n1C)c1cccnc1 [Example II-40] | – | 1.33 | 100 | 100 | 100 | efficacy (no fertile eggs laid) (Boophilus microplus): 80%
1.57 | CN(C(=O)c1cnc(Oc2cncc(Cl)c2)n1C)c1cccnc1 [Example II-41] | – | – | 100 | 100 | 100 | –
1.3 | CN(C(=O)c1cnc(Oc2cncc(F)c2)n1C)c1cccnc1 [Example II-42] | – | – | 100 | 100 | 90 | –
1.83 | CN(C(=O)c1cnc(Oc2cncc(C(F)(F)F)c2)n1C)c1cccnc1 [Example II-43] | – | – | 100 | 100 | 90 | –
– | CN(C(=O)c1cnc(Oc2ccc(Oc3ccc(Cl)nc3)nc2)n1C)c1cccnc1 [Example II-45] | – | – | 99 | 100 | – | efficacy (kill) (Myzus persicae [2]): 98%
– | CCN(C(=O)c1cnc(OCCCC#N)n1C)c1cccnc1 [Example II-47] | – | 1.33 | 100 | 100 | 90 | –
– | CN(C(=O)c1cnc(Oc2ccc(C#N)nc2)n1C)c1cccnc1 [Example II-58] | – | 1.1 | 100 | 100 | 90 | –
3.19 | CCCCSc1cccc(Oc2ncc(C(=O)N(C)c3cccnc3)n2C)c1 [Example II-82] | 100 | – | – | 100 | 100 | –
2.87 | CN(C(=O)c1cnc(Oc2cc(Cl)cc(C(F)(F)F)c2)n1C)c1cccnc1 [Example II-87] | 90 | – | – | 100 | 90 | –
– | CN(C(=O)c1cnc(Oc2ccc(F)c(Cl)c2)n1C)c1cccnc1 [Example II-89] | 100 | 2.17 | – | 100 | 100 | –
2.59 | Cn1c(C(=O)N(c2cccnc2)C2CC2)cnc1Oc1cccc(C(F)(F)F)c1 [Example II-94] | 90 | – | – | 100 | – | –

SMILES | LogP-neutral ([1]; pH 7.8) | efficacy (Tetranychus urticae) [%] | LogP-neutral ([1]; HPLC, neutral range pH 7.8) | efficacy (kill) (Aphis gossypii) [%] | efficacy (Myzus persicae [3]) [%] | efficacy (Myzus persicae [4]) [%] | also measured
CCN(C(=O)c1cnc(OC(C)C)n1C)c1cccnc1 [Example II-46] | 1.7 | – | – | 100 | 100 | 100 | –
CN(C(=O)c1cnc(Oc2cccc(Oc3ccccc3)c2)n1C)c1cccnc1 [Example II-81] | 2.72 | 100 | – | – | – | – | –
